Assay results taken from US9510594B2, “Use of SDHI fungicides on conventionally bred ASR-tolerant, stem canker resistant and/or frog-eye leaf spot resistant soybean varieties” (BAYER INTELLECTUAL PROPERTY GMBH, priority 2011, dated 2016).

Test system: Phakopsora pachyrhizi
Test: Soybean rust greenhouse test: preventive spray of young soybean plants, ABBOTT % efficacy, Colby comparison
Format: in vivo
Details: for Efficacy: fungicide alone, susceptible soybean variety (Miyagishirome), evaluated 11 days after inoculation
Procedure: One susceptible (Miyagishirome) and soybean varieties tolerant to soybean rust (Phakospora pachyrhizi) (TMG 801 and TMG 803) were cultivated in greenhouse up to 1.5-leaf stage. A suitable preparation of SDHI fungicide was produced by mixing 1 part per weight of the SDHI ingredient with 28.5 parts by weight of acetone as solvent and 1.5 parts by weight of polyoxyethylene alkyl phenyl ether as emulsifier. The concentrate was diluted with water to the desired concentrations.
Young plants of the susceptible and tolerant soybean varieties were sprayed with the preparation of the SDHI fungicide at the stated rate of application to evaluate the activity in controlling Phakopsora pachyrhizi.
One day after spraying, soybean plants were inoculated with an aqueous spore suspension of the causal agent of soybean rust (Phakopsora pachyrhizi). Plants were then placed in a greenhouse at approximately 20 ° C. and a relative atmospheric humidity of approximately 80%. The following trial schedule was applied:
Plants were evaluated 11 days after inoculation. The percentage of infected leaf area was determined visually. The results were calculated according to ABBOTT (% efficacy). 0% means an efficacy which corresponds to that of the control, while an efficacy of 100% means that no disease was observed.
The expected efficiencies for the SDHI fungicide and ASR-tolerant variety combinations were determined according to Colby's formula and compared to the observed efficiencies (Colby, S. R. (1967) Calculating synergistic and antagonistic responses of herbicide combinations, Weeds, 15: 20-22): E=x+y−xy/100
Wherein E is the expected efficacy as a percent of the check when using the combination of a fungicide and ASR-tolerant variety; x is the efficacy of the percent check when using the fungicide; y is the efficacy of the percent check when using the ASR-tolerant variety.
By Comparison of the expected efficacy and the observed efficacy, the synergistic effect can be discerned. If the observed percent efficacy is higher than the calculated expected percent efficacy there is a synergistic effect.

[1] = fungicide + tolerant soybean variety TMG 803, 0.2 ppm a.i.
[2] = fungicide + tolerant soybean variety TMG 803, 1 ppm a.i.
[3] = fungicide + tolerant soybean variety TMG 803, 5 ppm a.i.
[4] = fungicide + tolerant soybean variety TMG 803, 10 ppm a.i.
[5] = fungicide + tolerant soybean variety TMG 803, 25 ppm a.i.
[6] = fungicide + tolerant soybean variety TMG 803, 50 ppm a.i.
[7] = fungicide + tolerant soybean variety TMG 803, 100 ppm a.i.
[8] = fungicide + tolerant soybean variety TMG 801, 0.2 ppm a.i.
[9] = fungicide + tolerant soybean variety TMG 801, 1 ppm a.i.
[10] = fungicide + tolerant soybean variety TMG 801, 5 ppm a.i.
[11] = fungicide + tolerant soybean variety TMG 801, 10 ppm a.i.
[12] = fungicide + tolerant soybean variety TMG 801, 25 ppm a.i.
[13] = fungicide + tolerant soybean variety TMG 801, 50 ppm a.i.

| Compound | Actual efficacy [1] | Expected value, calculated using Colby's formula [1] | Actual efficacy [2] | Expected value, calculated using Colby's formula [2] | Actual efficacy [3] | Expected value, calculated using Colby's formula [3] | Actual efficacy [4] | Expected value, calculated using Colby's formula [4] | Actual efficacy [5] | Expected value, calculated using Colby's formula [5] | Actual efficacy [6] | Expected value, calculated using Colby's formula [6] | Efficacy (0.2 ppm a.i.) | Efficacy (1 ppm a.i.) | Efficacy (5 ppm a.i.) | Efficacy (10 ppm a.i.) | Efficacy (25 ppm a.i.) | Efficacy (50 ppm a.i.) | Actual efficacy [9] | Expected value, calculated using Colby's formula [9] | further results |
| --- | --- | --- | --- | --- | --- | --- | --- | --- | --- | --- | --- | --- | --- | --- | --- | --- | --- | --- | --- | --- | --- |
| Cn1cc(C(=O)Nc2ccc(F)cc2-c2ccc(Cl)c(Cl)c2)c(C(F)F)n1 [Bixafen, N-(3′,4′-dichloro-5-fluoro-1,1′-biphenyl-2-yl)-3-(difluoromethyl)-1-methyl-1H-pyrazole-4-carboxamide] | 60% | 55% | 70% | 58% | 75% | 64% | 80% | 73% | 96% | 80% | 98% | 82% | 0% | 7% | 20% | 40% | 55% | 60% |  |  | synergistic effect (applied to TMG 803, concentrations from 100 ppm a.i. to 25 ppm a.i.): highest synergistic effect; Actual efficacy [7]: 99%; Expected value, calculated using Colby's formula [7]: 78%; Efficacy (100 ppm a.i.): 50% |
| CC(C)C1C2CCC1c1c(NC(=O)c3cn(C)nc3C(F)F)cccc12 (stereo not drawn) [Isopyrazam] | 55% | 30% | 80% | 65% |  |  |  |  |  |  |  |  | 0% | 50% |  |  |  |  |  |  |  |
| Cn1cc(C(=O)Nc2ccccc2-c2cc(F)c(F)c(F)c2)c(C(F)F)n1 [Fluxapyroxad, 3-(difluoromethyl)-1-methyl-N-(3′,4′,5′-trifluorobiphenyl-2-yl)-1H-pyrazole-4-carboxamide] | 30% | 20% | 65% | 26% | 70% | 68% | 80% | 76% | 97% | 98% |  |  | 0% | 7% | 60% | 70% | 98% |  |  |  | synergistic effect (1 ppm a.i. applied to TMG 803, compared over all fungicides and rates): most pronounced synergistic effect |
| Cc1nn(C)c(F)c1C(=O)Nc1ccccc1C(C)CC(C)C (stereo not drawn) [Penflufen, N-[2-(1,3-dimethylbutyl)phenyl]-5-fluor-1,3-dimethyl-1H-pyrazole-4-carboxamide] | 70% | 50% | 65% | 50% | 95% | 60% | 98% | 60% | 97% | 78% | 100% | 80% | 0% | 0% | 20% | 20% | 55% | 60% | 70% | 50% | deviation of the actual efficacy from the expected value (10 ppm a.i., TMG 801 or TMG 803): highest deviations of the actual efficacy from the expected value; Actual efficacy [8]: 65%; Expected value, calculated using Colby's formula [8]: 50%; Actual efficacy [10]: 70%; Expected value, calculated using Colby's formula [10]: 60%; Actual efficacy [11]: 92%; Expected value, calculated using Colby's formula [11]: 60%; Actual efficacy [12]: 98%; Expected value, calculated using Colby's formula [12]: 78%; Actual efficacy [13]: 100%; Expected value, calculated using Colby's formula [13]: 80% |
| Cn1cc(C(=O)Nc2ccccc2C2CC2C2CC2)c(C(F)F)n1 (stereo not drawn) [Sedaxane] | 50% | 30% | 60% | 30% | 75% | 58% | 95% | 79% | 100% | 99% |  |  | 0% | 0% | 40% | 70% | 98% |  | 82% | 65% | synergistic effect (applied to TMG 803, 0.2 ppm a.i. to 1 ppm a.i. versus 5 ppm a.i. to 25 ppm a.i.): higher synergism; Actual efficacy [10]: 90%; Expected value, calculated using Colby's formula [10]: 79%; Actual efficacy [11]: 98%; Expected value, calculated using Colby's formula [11]: 90%; Actual efficacy [12]: 99%; Expected value, calculated using Colby's formula [12]: 99% |
